Data on eleven compounds can be found in patent US8859535B2, “Hydroxy substituted isoquinolinone derivatives” (Novartis AG, priority 2011, dated 2014).

T1 sequence (Q00987 2-188): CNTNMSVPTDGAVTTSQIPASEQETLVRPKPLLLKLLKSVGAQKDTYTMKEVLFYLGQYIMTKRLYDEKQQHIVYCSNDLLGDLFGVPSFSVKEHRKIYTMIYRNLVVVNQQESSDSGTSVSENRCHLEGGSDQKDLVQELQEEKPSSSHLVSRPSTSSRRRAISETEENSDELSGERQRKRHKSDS

This assay concerns the target T1, human MDM2 protein (amino acids 2-188) (Homo sapiens, UniProt Q00987).
T1 construct: human MDM2 protein (amino acids 2-188); made in house
The assay can be described thus: p53-MDM2 TR-FRET assay (p53-MDM2 Assay 1). The format is binding. To be noted: 1.25 nM MDM2-biotinylated, 10 nM Cy5-p53 peptide; read-out: IC50 (μM) of p53-Hdm2 inhibition (TR-FRET) Assay 1. As for the experimental part: Time Resolved Fluorescence Energy Transfer (TR-FRET) Assay
The inhibition of p53-MDM2 and p53-MDM4 interactions is measured by time resolved fluorescence energy transfer (TR-FRET). Fluorescence energy transfer (or Foerster resonance energy transfer) describes an energy transfer between donor and acceptor fluorescent molecules. For this assay, human MDM2 protein (amino acids 2-188) and human MDM4 protein (amino acids 2-185), tagged with a C-terminal biotin moiety, are used in combination with a Europium labeled streptavidin (Perkin Elmer, Inc., Waltham, Mass., USA) serving as the donor fluorophore. The p53 derived, Cy5 labeled peptide Cy5-TFSDLWKLL (p53 aa18-26) is the energy acceptor. Upon excitation of the donor molecule at 340 nm, binding interaction between MDM2 or MDM4 and the p53 peptide induces energy transfer and enhanced response at the acceptor emission wavelength at 665 nm. Disruption of the formation of the p53-MDM2 or p53-MDM4 complex due to an inhibitor molecule binding to the p53 binding site of MDM2 or MDM4 results in increased donor emission at 620 nm. The ratiometric FRET assay readout is calculated from the raw data of the two distinct fluorescence signals measured in time resolved mode (fluorescence 665 nm/fluorescence 620 nm×1000).
After addition of 1.25 nM MDM2-biotinylated or 2.5 nM MDM4-biotinylated (internal preparations), and 0.625 nM Europium labeled streptavidin (Perkin Elmer), the solution is pre-incubated for 15 minutes at room temperature, then 10 nM Cy5-p53 peptide (internal preparation) is added before an incubation at room temperature for 15 minutes prior to reading the plate. For measurement of samples, a Victor II microplate reader (Perkin Elmer) is used with the following settings: Excitation 340 nm, Emission Donor 620 nm and Emission Acceptor 665 nm. IC50 values are calculated by curve fitting using XLfit. If not specified, reagents are purchased from Sigma-Aldrich Chemie GmBH, Buchs, Switzerland.
This assay was used to evaluate compounds displaying inhibition of p53-MDM2 interaction and p53-MDM4 interaction at IC50s of 0.005 to 50 μM (p53-MDM2 Assay 1 and p53-MDM4 Assay 1, respectively). For selected compounds displaying IC50s between […] on MDM2, a slightly modified assay is used with the following adaptations: 0.1 nM MDM2, 0.1 nM Europium labeled streptavidin and Tecan genios Pro is used as a microplate reader for the fluorescence measurements (p53-MDM2 Assay 2).
A general note: In TR-FRET formats the signal depends on donor and acceptor labels being close together.
On to `COc1cc2c(cc1OC(C)C)[C@H](c1ccc(Cl)cc1)N(c1ccc(C(C)(O)c3cccnc3)cc1F)C(=O)C2` (stereo partly drawn) [Example 20, (S)-1-(4-Chloro-phenyl)-2-[2-fluoro-4-(1-hydroxy-1-pyridin-3-yl-ethyl)-phenyl]-7-isopropoxy-6-methoxy-1,4-dihydro-2H-isoquinolin-3-one], for which the IC50 – broadly, the midpoint of a concentration-inhibition curve – came to 0.0723 µM.

Regarding `COc1cc2c(cc1OC(C)C)[C@H](c1ccc(Cl)cc1)N(c1ccc(C(C)(O)C34CC5CC(CC(C5)C3)C4)cc1)C(=O)C2` (stereo partly drawn) [Example 141, (S)-2-[4-(1-Adamantan-1-yl-1-hydroxy-ethyl)-phenyl]-1-(4-chloro-phenyl)-7-isopropoxy-6-methoxy-1,4-dihydro-2H-isoquinolin-3-one], the IC50 was 0.0251 µM.

Regarding `COc1cc2c(cc1OC(C)C)[C@H](c1ccc(Cl)cc1)N(c1ccc(C3(O)CNC3)cc1)C(=O)C2` [Example 56, (S)-1-(4-Chloro-phenyl)-2-[4-(3-hydroxy-azetidin-3-yl)-phenyl]-7-isopropoxy-6-methoxy-1,4-dihydro-2H-isoquinolin-3-one], the IC50 stood at 0.811 µM.

For the compound `COc1cc2c(cc1OC(C)C)[C@H](c1ccc(Cl)cc1)N(c1ccc([C@](C)(O)C3CCC(F)(F)CC3)cc1)C(=O)C2` (single isomer, unassigned) [Example 46], the IC50 was 0.422 µM.

Take `CCC(C)(O)c1ccc(N2C(=O)Cc3cc(OC)c(OC(C)C)cc3[C@@H]2c2ccc(Cl)cc2)cn1` (stereo partly drawn) [Example 9, (S)-1-(4-Chloro-phenyl)-2-[6-(1-hydroxy-1-methyl-propyl)-pyridin-3-yl]-7-isopropoxy-6-methoxy-1,4-dihydro-2H-isoquinolin-3-one]: the IC50 worked out at 0.459 µM.

For the compound `COc1cc2c(cc1OC(C)C)[C@H](c1ccc(Cl)cc1)N(c1ccc(C(C)(O)C3C4CC5CC(C4)CC3C5)cc1)C(=O)C2` (stereo partly drawn) [Example 144, (S)-2-[4-(1-Adamantan-2-yl-1-hydroxy-ethyl)-phenyl]-1-(4-chloro-phenyl)-7-isopropoxy-6-methoxy-1,4-dihydro-2H-isoquinolin-3-one], the IC50 is 0.123 µM.

As for `COc1cc2c(cc1OC(C)C)[C@H](c1ccc(Cl)cc1)N(c1ccc(C(C)(O)CCO)cc1)C(=O)C2` (stereo partly drawn) [Example 41, (S)-1-(4-Chloro-phenyl)-2-[4-(1,3-dihydroxy-1-methyl-propyl)-phenyl]-7-isopropoxy-6-methoxy-1,4-dihydro-2H-isoquinolin-3-one], the IC50 was found to be 0.247 µM.

`COc1cc2c(cc1OC(C)C)[C@H](c1ccc(Cl)cc1)N(c1ccc(C3(O)CN(C(=O)N(C)C)C3)cc1)C(=O)C2` [Example 59, 3-{4-[(S)-1-(4-Chloro-phenyl)-7-isopropoxy-6-methoxy-3-oxo-3,4-dihydro-1H-isoquinolin-2-yl]-phenyl}-3-hydroxy-azetidine-1-carboxylic acid dimethylamide]: the IC50 came out at 0.167 µM.

As for `COc1cc2c(cc1OC(C)C)[C@H](c1ccc(Cl)cc1)N(c1ccc(C3(O)CN(C(C)=O)C3)cc1)C(=O)C2` [Example 57, (S)-2-[4-(1-Acetyl-3-hydroxy-azetidin-3-yl)-phenyl]-1-(4-chloro-phenyl)-7-isopropoxy-6-methoxy-1,4-dihydro-2H-isoquinolin-3-one], the IC50 stood at 0.262 µM.

Consider `COc1cc2c(cc1OC(C)C)[C@H](c1ccc(Cl)cc1)N(c1ccc([C@](C)(O)C34CC5CC(CC(C5)C3)C4)cc1)C(=O)C2` (single isomer, unassigned) [Example 143], for which the IC50 is 2.31 µM.

Regarding `CCC(C)(O)c1ccc(N2C(=O)Cc3cc(OC)c(OC(C)C)cc3[C@@H]2c2ccc(Cl)cc2)nc1` (stereo partly drawn) [Example 10, (S)-1-(4-Chloro-phenyl)-2-[5-(1-hydroxy-1-methyl-propyl)-pyridin-2-yl]-7-isopropoxy-6-methoxy-1,4-dihydro-2H-isoquinolin-3-one], the IC50 was 0.247 µM.
